This is an account of results in US20250161288A1, “MULTIMERIZER PHARMACEUTICAL COMPOSITIONS” (PONCE THERAPEUTICS, INC., priority 2022, published 2025).

For series [1] the following is noted: Drug Bank Online; cited from earlier work.
The conditions of series [2]: class IV characterisation, aqueous solubility; cited from earlier work.
The format of series [3] is physicochemical. An excerpt:
As such, rimiducid is categorized as a biopharmaceutical classification system (BCS) class IV drug. Although there are exceptions, BCS class IV compounds generally are viewed as poor candidates for oral delivery (Markovic et al., Pharmaceutics 2020, 12(12), 1175. doi.org/10.3390/pharmaceutics12121175). For a compound to be absorbed, it must first be in solution. […] Once solubilized, rimiducid must cross the plasma membranes of the intestinal tract to be absorbed. […] Because of the molecular weight of 1411.6 Da, passive absorption of rimiducid through the intestinal aqueous porin channels is unlikely (Dahlgren et al., Pharmaceutics. 2019; 11(8):411. Published 2019 Aug. 13. doi:10.3390/pharmaceutics11080411).

Regarding `CC[C@H](C(=O)N1CCCC[C@H]1C(=O)O[C@H](CCc1ccc(OC)c(OC)c1)c1cccc(OCC(=O)NCCNC(=O)COc2cccc([C@@H](CCc3ccc(OC)c(OC)c3)OC(=O)[C@@H]3CCCCN3C(=O)[C@@H](CC)c3cc(OC)c(OC)c(OC)c3)c2)c1)c1cc(OC)c(OC)c(OC)c1` [Rimiducid, rimiducid], the water solubility result in series [1] was “less than 0.5 μg/mL”. In series [2], the “volume required to dissolve an effective dose” value is given as “greater than 250 milliliters”. Also, the “theoretical maximal solubility of rimiducid within the upper GI tract” value in series [3] was “less than 250 μg”.
